Earlier results, collected in US5883119A, “Triterpene derivatives with immunosuppressant activity” (Merck & Co., Inc., priority 1996, dated 1999).

System: Kv 1.3 channels (CHO cells transfected with Kv 1.3 channels)
Settings: stated in the method as property of the control blocker

margatoxin (TIINVKCTSPKQCLPPCKAQFGQSAGAKCMNGKCKCYPH; UniProt P40755 1-39, looked up)
IC50: 0.1 nM
